Results on one compound are retold here after article PMC7466040, “Sevanol and Its Analogues: Chemical Synthesis, Biological Effects and Molecular Docking” (Pharmaceuticals, 2020).

Assay [1] has as its target T1, ASIC1a (Rattus norvegicus, UniProt P55926).
T1 construct: expressed in transfected cells; host or cells: Xenopus laevis oocytes (cRNA injection)
T1 sequence (P55926 1-526): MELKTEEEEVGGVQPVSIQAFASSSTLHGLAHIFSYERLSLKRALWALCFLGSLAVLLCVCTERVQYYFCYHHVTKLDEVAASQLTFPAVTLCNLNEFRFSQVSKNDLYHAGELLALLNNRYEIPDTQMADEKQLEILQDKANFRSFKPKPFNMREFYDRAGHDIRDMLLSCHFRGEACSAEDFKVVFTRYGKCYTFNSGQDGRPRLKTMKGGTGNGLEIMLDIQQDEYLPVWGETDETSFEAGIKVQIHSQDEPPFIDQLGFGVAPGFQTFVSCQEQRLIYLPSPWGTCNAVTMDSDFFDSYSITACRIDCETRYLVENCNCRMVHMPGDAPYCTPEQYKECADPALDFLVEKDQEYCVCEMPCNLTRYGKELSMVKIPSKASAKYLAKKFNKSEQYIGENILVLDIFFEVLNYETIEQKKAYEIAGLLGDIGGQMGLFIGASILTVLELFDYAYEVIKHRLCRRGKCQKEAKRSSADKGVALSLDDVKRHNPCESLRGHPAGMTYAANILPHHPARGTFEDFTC
The assay can be described thus: Competition of sevanol with FRRFa peptide on ASIC1a current (integral currents). It counts as cell-based. The source says: It is known that RF-amide peptides produce a potentiating effect on ASIC1a by inhibiting the channel’s desensitization in the presence of protons (during acidic stimulation). […] Using molecular docking and site-directed mutagenesis, it has been shown that RF-amide peptides are most likely to bind to ASIC1a in the central vestibule of the chicken channel. […] The peptide worsened the effectiveness of the inhibitory action of sevanol on the channel by 1.5 times, and reduced the Hill coefficient (Figure 3). Thus, it can be assumed that the binding site of sevanol also lies in the region of the central vestibule.
Oocytes were harvested from female frogs anaesthetized with tricaine methane sulfonate (MS222) (0.17% solution), and the surgery was performed in an ice bath to avoid heavy bleeding. Defolliculated stage IV and V cells were injected with 2.5 and 10 ng cRNA, synthesized from PCi plasmids containing the rat ASIC1a and rat ASIC3 isoforms, respectively, using the Nanoliter 2000 microinjection system (World Precision Instruments, USA). The injected oocytes were kept for 2–3 days at 17 to 19 °C, and then for up to 5 days at 15 °C in a ND96 medium containing (in mM) 96 NaCl, 2 KCl, 1.8 CaCl2, 1 MgCl2, and 5 HEPES titrated to pH 7.4 with NaOH supplemented with gentamycin (50 μg/mL). Two-electrode voltage clamp recordings were performed at a holding potential of −50 mV using a GeneClamp 500 amplifier (Axon Instruments), and the data were filtered at 20 Hz and digitized at 100 Hz by an AD converter L780 (LCard, Russia). Microelectrodes were filled with 3 M KCl. The conditioning bath solution was ND96; the pH was adjusted to 7.4. The activating test solution was constructed based on the ND-96 buffer, in which 5 mM HEPES was replaced with 10 mM MES and pH was adjusted to 5.5. A computer-controlled valve system was used to achieve a rapid solution exchange in the recording chamber. A four parameter logistic equation was used for the curve-fitting analysis: F(x) = ((a1 − a2)/(1 + (x/x0)n)) + a2, where x is the concentration of the compound; F(x) is the response value at a given concentration of the compound; a1 is the control response value (fixed at 100%); x0 is the IC50 value; n is the Hill coefficient (slope factor); and a2 is the response value at the maximal inhibition (% of control).
Figure 3 Comparison of sevanol (s706) and the Phe-Arg-Arg-Phe-amide peptide (FRRFa) effects on the ASIC1a current. […] (B) Dose–response ASIC1a inhibitory curves for s706 alone (red line) and for s706 in the presence of 200 µM FRRFa (blue line), determined for integral currents. […]

Assay [2] deals with human ASIC3 channels. Particulars: natural sevanol; read-out: IC50, inhibition of human ASIC3 channels; cited from earlier work.
Assay [3] deals with mice. Also noted: method as in PMID 30545037. Particulars: parenteral, 0.01–10 mg/kg; cited from earlier work.

Turning to `O=C(O)CC(C(=O)O)C(OC(=O)C1=Cc2cc(O)c(O)cc2C(c2ccc(O)c(O)c2)C1C(=O)OC(C(=O)O)C(CC(=O)O)C(=O)O)C(=O)O` (stereo not drawn) [sevanol], in assay [1] (200 μM FRRFa vs alone), the “worsening of effectiveness of inhibitory action on ASIC1a by FRRFa peptide” value was 1.5 times. Besides, the IC50 (as a rule, the concentration that inhibits the measured activity by half) is 254 ± 31.2 µM in assay [1] (integral currents, pH 5.5, 15 s pre-incubation, n = 5, read-out: IC50, ASIC1a inhibition, s706 alone) and 300 µM in assay [2]. The “nH, ASIC1a inhibition in the presence of FRRFa” value in assay [1] (integral currents, pH 5.5, + 0.2 mM (200 µM) FRRFa, n = 5) is on record as 2.4 ± 0.3. Further, in assay [1] (integral currents, pH 5.5, n = 5), the “nH, ASIC1a inhibition, s706 alone” value was 3.1 ± 0.4. Also, the “effect on acetic acid-induced writhing” value in assay [3] was “reduced the number of writhes”.
